In patent US11225466B2, “Benzothiadiazepine compounds and their use as bile acid modulators” (Albireo AB, priority 2019, dated 2022):

Columns and labels:
Human LBAT = biological target: T1, Human LBAT (Homo sapiens, UniProt Q14973); assay: LBAT (h/m) assay: 3H-taurocholic acid uptake in human LBAT-overexpressing cells; format: cell-based; conditions: 0.3 μM 3H-taurocholic acid and 7.5 μM cold taurocholic acid, read-out: hLBAT IC50
T1 sequence (Q14973 1-349): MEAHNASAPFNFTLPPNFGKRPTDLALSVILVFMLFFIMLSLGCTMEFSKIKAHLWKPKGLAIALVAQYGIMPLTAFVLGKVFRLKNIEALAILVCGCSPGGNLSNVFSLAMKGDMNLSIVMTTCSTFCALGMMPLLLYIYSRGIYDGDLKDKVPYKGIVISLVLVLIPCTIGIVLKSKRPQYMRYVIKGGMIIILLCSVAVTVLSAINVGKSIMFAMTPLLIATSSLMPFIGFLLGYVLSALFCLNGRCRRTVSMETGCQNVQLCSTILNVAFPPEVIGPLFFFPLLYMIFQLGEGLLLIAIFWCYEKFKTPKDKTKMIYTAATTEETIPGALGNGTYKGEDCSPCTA
Experimental: LBAT (h/m) Assay Protocol
(§1) 20,000 cells (Human or Mouse LBAT-overexpressing cells) were seeded in 96-wells plate (Corning CLS3809) in 100 μL MEM-alpha medium (Gibco 12571-063) supplemented with 10% FBS (Gibco 10438026) containing Geneticin (Gibco 10131-027) (1 mg/mL) and incubated at 37° C. in 5% CO2 for 24 hours. After incubation, media was decanted from the wells and cells were washed two times with 300 μL of basal MEM-alpha medium (FBS-free). After decanting basal MEM-alpha medium each time, plates were tapped against paper towel to ensure maximum removal of residual media.
For human LBAT, incubation mix was prepared by adding test inhibitor dilutions (3-fold serial dilution in DMSO (Sigma D2650), 10 points) in MEM-alpha (without FBS) containing 0.3 μM 3H-taurocholic acid (ARC ART-1368) and 7.5 μM cold taurocholic acid (Sigma T4009) (maintaining 0.2% final DMSO concentration). […]
100 μL of MicroScint-20 (PerkinElmer 6013621) was added to the wells and kept overnight at room temperature before reading the plates in TopCount NXT™ Microplate Scintillation and Luminescence Counter from PerkinElmer under 3H Test protocol (set at 120 seconds reading time per well, with normal plate orientation). […]

Human IBAT = biological target: T2, Human IBAT (Homo sapiens, UniProt Q12908); assay: IBAT (h/m) assay: 3H-taurocholic acid uptake in human IBAT-overexpressing cells; format: cell-based; conditions: 0.25 μM 3H-taurocholic acid and 5 μM cold taurocholic acid, read-out: hIBAT IC50
T2 construct: expressed in transfected cells; kept under Puromycin selection
T2 sequence (Q12908 1-348): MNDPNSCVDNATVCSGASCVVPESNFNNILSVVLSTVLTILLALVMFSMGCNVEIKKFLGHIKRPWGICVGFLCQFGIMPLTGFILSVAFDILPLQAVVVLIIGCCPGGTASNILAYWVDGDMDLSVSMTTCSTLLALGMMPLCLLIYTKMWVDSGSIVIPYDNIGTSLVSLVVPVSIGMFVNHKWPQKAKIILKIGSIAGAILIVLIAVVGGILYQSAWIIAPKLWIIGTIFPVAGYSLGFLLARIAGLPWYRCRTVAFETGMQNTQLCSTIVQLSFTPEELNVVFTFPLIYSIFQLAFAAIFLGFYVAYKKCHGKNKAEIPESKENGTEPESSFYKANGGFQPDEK
Experimental: IBAT (h/m) Assay Protocol
as §1, with “10,000” for “20,000”, “IBAT-overexpressing” for “LBAT-overexpressing”, “200” for “100”, “Puromycin” for “Geneticin”, “A1113803) (10 μg/mL)” for “10131-027) (1 mg/mL)”, “48” for “24”
Test inhibitor dilutions (highest test concentration being 10 μM, 3-fold serial dilution, 10 points) prepared in DMSO (Sigma D2650) were added in incubation mix (maintaining 0.2% final DMSO concentration) containing 0.25 μM 3H-taurocholic acid (ARC ART-1368) and 5 μM of cold taurocholic acid (Sigma T4009). 50 μL of incubation mix containing test inhibitors was then added to the wells (in duplicate) and the plates were incubated for 20 minutes in a CO2 incubator at 37° C. After incubation, the reaction was stopped by keeping the plates on ice water mix for 2-3 minutes and then the incubation mix was aspirated completely from the wells. The wells were washed two times with 250 μL of chilled unlabeled 1 mM taurocholic acid dissolved in HEPES (Gibco 15630080)-buffered (10 mM) HBSS (Gibco 14175079) (pH 7.4). The plates were tapped against a paper towel after every wash to ensure maximum removal of blocking buffer.
100 μL of MicroScint-20 (PerkinElmer 6013621) was added to the wells and kept overnight at room temperature before reading the plates in TopCount NXT™ Microplate Scintillation and Luminescence Counter from PerkinElmer under 3H Test protocol (set at 120 seconds reading time per well).
All test compounds were provided in powder form at room temperature. 10 mM DMSO stocks of the test compounds were prepared, aliquoted and stored at −20° C. From the 10 mM DMSO stock of the compounds, a 3-fold serial dilution in DMSO was prepared to get a total of 10 dilutions of the test compounds. […]

[1] = Bidirectional permeability assay (Caco-2 cells); format: in vitro ADME; conditions: human, Caco-2, pH 7.4, 120 minutes at 37° C., FaSSIF buffer; for Papp A→B at 120 min, 10 µM: absorptive direction (A2B); for Papp B→A at 120 min, 10 µM: secretory direction (B2A)
Text: Bidirectional Permeability Assay (Caco-2 Cells)

SMILES	IC50 (Human LBAT)	IC50 (Human IBAT)	Papp A→B at 120 min, 10 µM [1]	Papp B→A at 120 min, 10 µM [1]
CCCC[C@@]1(CC)CN(c2ccccc2)c2cc(SC)c(OCC(=O)O)cc2S(=O)(=O)N1 (single isomer, unassigned) [Example 2]	3980 nM	5.7 nM	2.52 ×10⁻⁶ cm/s	4 ×10⁻⁶ cm/s
CCCC[C@]1(CC)CN(c2ccccc2)c2cc(SC)c(OCC(=O)O)cc2S(=O)(=O)N1 (single isomer, unassigned) [Example 3]	5000 nM	182 nM	–	–
CCCCC1(CC)CN(c2ccccc2)c2cc(SC)c(OCC(=O)O)cc2S(=O)(=O)N1 (stereo not drawn) [Example 1, 2-((3-butyl-3-ethyl-7-(methylthio)-1,1-dioxido-5-phenyl-2,3,4,5-tetrahydrobenzo-1,2,5-thiadiazepin-8-yl)oxy)acetic Acid]	–	8.8 nM	1.1 ×10⁻⁶ cm/s	2.9 ×10⁻⁶ cm/s
